The values that follow come from US6803233B2, “Model for Alzheimer's disease and other neurodegenerative diseases” (priority 2000, dated 2004).

SMILES strings stand for the structures. Entries after “also recorded” stand apart in the source; their conditions may differ. Square brackets hold non-standard residues; d marks the D form. Peptide text beside a SMILES is read from it. Nle = CCCC[C@H](N)C(=O)O

Assay [1] deals with tangle-like structures. Kind of assay: AT8 immunostaining of cultured rat hippocampal slices. The following applies: for number of ZPAD-induced tangles in the presence of the inhibitor: hippocampal slices, ZPAD plus inhibitor, 6 days. The format is cell-based.
Protocol: Cultured slices were stained with anti-phosphorylated tau antibody AT8.
(§1) Cultures of hippocampal slices were prepared from 10-12 days old rats.
Cultured rat hippocampal slices of 12 days in vitro were treated with 20 μM pravastatin for 6 days and processed from immunohistological studies with the monoclonal antibody AT8. The subiculum, CA1 field, and CA3 field of the hippocampus were examined by photomicroscopy.
Assay [2] deals with tau. Kind of assay: Immunoblot of tau (tau-1, AT8) in cultured rat hippocampal slices. The format is cell-based.
Protocol: Immunoblotting was carried out by using anti-non phosphorylated tau antibody, tau-1 or anti-phosphorylated tau antibody, AT8.
as §1
Assay [3] deals with p35. Description: Immunoblot of p35/p25 in cultured rat hippocampal slices. The format is cell-based. The following applies: 6 days.
Protocol: Hippocampal slices were collected, homogenized, and subjected to SDS-PAGE electrophoresis. Immunoblots were then probed with anti-p35 sera that were raised against the C-terminal domain of p35.
as §1
Assay [4] deals with TGF-beta. Kind of assay: RT-PCR/northern blot of cytokine mRNA in cultured hippocampal slices. The format is cell-based.
The test system of assay [5] is reactive microglia. Kind of assay: ED-1 immunocytochemistry of cultured brain explants. The class given is cell-based, rat. The following applies: 6 days. The method, then:
Immunocytochemical studies using the monoclonal antibody ED-1 that recognizes reactive microglia were used at 1:1000 dilution following standard immunohistochemical procedures. Microglial activation was determined by measuring cell numbers, optical density, and size of cell bodies using the program NIH Image. Brain tissue was cultured for 12 days and treated with ZPAD (20 μM) in the presence or absence of PD98059 (50 μM) for 6 days (FIG. 18). Cultured explants were then sliced and stained by using monoclonal antibody ED-1 which recognizes reactive microglia, a classical marker of inflammation. […] Cultured brain explants were then sliced and stained by using monoclonal antibody ED-1, a classical marker for reactive microglia and macrophages.

Assay [6] concerns MAPK (ERK1/2). Kind of assay: Immunoblot with anti-active MAPK in cultured hippocampal slices. The following applies: 6 days. The class given is cell-based.
Assay [7] deals with APP. Kind of assay: Immunoblot of APP in hippocampal slices, mevastatin plus kinase inhibitors (Example 8). The class given is cell-based. Background: In western blotting, separated proteins are transferred to a membrane and probed.
The test system of assay [8] is p35. Kind of assay: Immunoblot of p35 in hippocampal slices from apoE-knockout mice. The following applies: apoE-knockout mouse slices; mevastatin plus agent. The class given is cell-based.
Assay [9] deals with amyloid precursor protein (APP). Kind of assay: Immunoblot of APP (antibody 22C11) in hippocampal slices from apoE-knockout mice. The format is cell-based, mouse. The source says:
Tissues were processed for immunoblotting and assessed by monoclonal antibody 22C11, which recognizes the N-terminal domain of amyloid precursor protein (APP). […] Whether this new product is due to proteolysis or changes in protein maturation is under investigation.

The test system of assay [10] is IL-10. Description: RT-PCR/northern blot of cytokine mRNA in cultured hippocampal slices. As to conditions: ZPAD 20 μM, mevastatin 20 μM. The format is cell-based.
Assay [11] relates to TNF-alpha. The description is as above. The format is cell-based. As to conditions: mevastatin 20 μM. The source says: FIG. 17. Messenger RNA levels of TNF-alpha are increased by interruption of cholesterol synthesis.
Levels of mRNA for the cytokines were quantified by RT-PCR and northern blot analysis, following protocols outlined in the RT-PCR kit (Ambion Inc.).

Assay [12] has as its system microglia. Kind of assay: CD11b immunostaining of hippocampus of rats injected daily with statins. The format is in vivo, rat. The following applies: male Sprague-Dawley rats, 10 mg/kg i.p. daily for 39 days. Here is the method: Brains were then removed, postfixed in perfusate for 5-6 hors, and cryoprotected in 15% sucrose/PB followed by 30% sucrose/PB (12-24 hours each) at 4° C. Coronal sections were cut at 20-30 μm by using a freezing microtome and collected into PBS. Immunostaining was performed as described for the in vitro experiments using monoclonal antibody CD11b that reacts with both active and non-active microglia.

Assay [13] concerns tau protein. As to conditions: literature report; cited from earlier work.
Assay [14] has as its system cathepsin D. As to conditions: literature report; cited from earlier work.

On to `CCCC[C@@H](C=O)NC(=O)[C@H](CC(C)C)NC(=O)[C@H](CC(C)C)NC(C)=O` [calpain inhibitor I, N-acetyl-leucyl-leucyl-norleucinal] (Ac-Leu-Leu-[Nle]-aldehyde), for which the “number of ZPAD-induced tangles in the presence of the inhibitor” value in [1] was “significantly reduced”. Besides, the “ZPAD-induced tau fragments (tau 15-35 / tau 29 and tau 40) in the presence of the inhibitor” value in [2] (ZPAD plus inhibitor, 6 days, 2 separate experiments) was “almost completely blocked”. Further, in assay [3] (ZPAD plus inhibitor), the “ZPAD-induced conversion of p35 to p25 in the presence of the inhibitor” value is “significantly inhibited”.
Consider `COc1cccc(-c2cc(=O)c3ccccc3o2)c1N` [PD98059, 2-2(Amino-3-methoxyphenyl)-4H-1-benzopyran-4-one], for which the “number of ZPAD-induced tangles in the presence of the inhibitor” value in assay [1] is on record as “significantly reduced”. Moreover, in assay [4] (PD98059 treatment), the “mRNA levels for certain cytokines (FIG. 16)” value is given as “decreased”. Moreover, in assay [5] (ZPAD 20 μM plus PD98059 50 μM), the “ZPAD-induced reaction of microglia with co-application of the inhibitor” value is recorded as “completely blocked”. Also, in assay [5] (ZPAD 20 μM, mevastatin 20 μM or PD98059 50 μM alone), the “reaction of microglia (ED-1 staining)” value is “did not induce evident change in microglia”. In addition, the “MAPK activation by mevastatin and ZPAD in the presence of the inhibitor” value in assay [6] was “blocked”. In addition, the “effects of mevastatin on APP in the presence of the inhibitor” value in assay [7] is recorded as “partially blocked”.
In the case of `CC(O)(CCO)CC(=O)O` (stereo not drawn) [mevalonate], the “mevastatin-induced down regulation of p35 in the presence of the agent” value in assay [8] was “completely blocked”. The “effects of mevastatin on APP in the presence of the agent” value in assay [9] (mevastatin plus agent) was “completely blocked”.
For the molecule `CC[C@H](C)C(=O)O[C@H]1CCC=C2C=C[C@H](C)[C@H](CC[C@@H]3C[C@@H](O)CC(=O)O3)[C@H]21` [mevastatin], the “induction of AT8-immunoreactive tangle-like structures” value in [1] (rat hippocampal slices, agent applied for 6 days) is “moderately increased; also recorded: resulted in tangle-like structures”. Further, in assay [2] (rat hippocampal slices), the “phosphorylated 33 kDa tau breakdown products (AT8 blot)” value is listed as “markedly enhanced”. In addition, in [3] (hippocampal slices), the “levels of p35” value is “significant decreases; also recorded: rapidly and markedly decreased; also recorded: reduced”. Besides, the “mRNA levels of TGF-beta” value in assay [4] (ZPAD 20 μM, mevastatin 20 μM) is recorded as “increased”. Also, the “mRNA levels of IL-10” value in assay [10] was “increased”. The “mRNA level of TNF-alpha” value in [11] is listed as “markedly increase”. The “activated MAPK (ERK1/2)” value in [6] (hippocampal slices) was “activated; also recorded: increased; also recorded: activation”. Moreover, the “levels of full length APP” value was “increased levels” in assay [9] (mevastatin treatment) and “markedly increased” in assay [9] (mevastatin treatment, listed as Mevastatin). Further, the “novel APP band with molecular weight slightly lower than native APP” value in assay [9] (mevastatin treatment) is “induced a novel band”. For the same molecule, the microglial reactions entry in assay [12] is on record as “induced; also recorded: Induction of microglial reactions”.
Consider `CCN(CC)CCCC(C)Nc1ccnc2cc(Cl)ccc12` (stereo not drawn) [chloroquine], for which the “29 kDa tau fragment (tau 29)” value in assay [13] is on record as “delayed appearance of a 29 kDa fragment”. In addition, the “enzymatically active cathepsin D” value in assay [14] is listed as “increases in enzymatically active cathepsin D”.
